Data set [1] in a line: Solubility of CHIR99021 diHCl in PBS with or without 17 wt % poloxamer 407, judged by eye and transmitted light microscopy. It counts as physicochemical. As to conditions: 17 wt % poloxamer 407 in 1×PBS versus 1×PBS alone; 25 mg/ml (supersaturated); pH approximately 7.5; stirred overnight at room temperature. The protocol:
CHIR99021 diHCl was combined with either 1×PBS or 17 wt % poloxamer 407 in 1×PBS at a concentration of 25 mg/ml, which was supersaturated for both solutions. After stirring the mixtures overnight at room temperature, the pH of the PBS buffers was adjusted to a pH of approximately 7.5.

Data set [2] is described as follows: Solubility of CHIR99021 diHCl in Poloxamer P-407/water solutions under refrigeration. The following applies: for solubility at 2 days: aqueous with cosolvent or surfactant or cyclodextrin, thermodynamic from solid, no DMSO or other additives, read-out: CHIR99021 diHCl Conc (solubility). Format: physicochemical. The protocol:
CHIR99021 diHCl was combined with Poloxamer P-407 and water. Samples were prepared ice-cold and allowed to incubate in the refrigerator for 2 days with occasional vortexing.
The solubility results shown below in Table 1 for refrigeration conditions. The only components in the poloxamer solution in the samples were P-407 and water (no DMSO or any other additives). The 20% sample was a gel at room temperature and the 15% sample was syrup, while the 10% and 5% samples were more fluid.

Experimental findings from US11033546B2, “Solubilized compositions for controlled proliferation of stem cells / generating inner ear hair cells using a GSK3 inhibitor: I” (Frequency Therapeutics, Inc., priority 2016, dated 2021) are described below.

Where two headings read alike, the source gives them in different places.

A word on the solubility: it is how much of the substance goes into solution per volume. For `Cc1c[nH]c(-c2cnc(NCCNc3ccc(C#N)cn3)nc2-c2ccc(Cl)cc2Cl)n1` [CHIR99021 diHCl, 6-[[2-[[4-(2,4-Dichlorophenyl)-5-(5-methyl-1H-imidazol-2-yl)-2-pyrimidinyl]amino]ethyl]amino]-3-pyridinecarbonitrile], the “solubility as judged by eye and transmitted light microscopy” value in data set [1] is reported as “appeared more soluble”. Besides, the “solubility trend in P-407 solutions” value in data set [2] (5% to 20% P-407 in water) is “improved solubility with increasing % poloxamer concentration”. Further, the solubility at 2 days in data set [2] (10% Poloxamer P-407 in water, 10% P-407 in water) was 2.6 µg/mL; in data set [2] (15% Poloxamer P-407 in water, 15% P-407 in water), 7.9 µg/mL; in data set [2] (20% Poloxamer P-407 in water, 20% P-407 in water), 13.5 µg/mL.
